According to patent publication EP0747380B1, “Compounds and compositions with nitrogen-containing non-basic side chains” (ELI LILLY AND COMPANY, priority 1995, dated 1996):

Key:
serum cholesterol = test: Serum cholesterol analysis, OVX rat, four day dosing regimen; assay type: in vivo, female Sprague Dawley rats
Protocol: (§1) Animals were dosed daily for 4 days. […] A blood sample was collected by cardiac puncture.
Blood samples were allowed to clot at room temperature for 2 hours, and serum was obtained following centrifugation for 10 minutes at 3000 rpm. Serum cholesterol was determined using a Boehringer Mannheim Diagnostics high performance cholesterol assay. Briefly the cholesterol was oxidized to cholest-4-en-3-one and hydrogen peroxide. The hydrogen peroxide was then reacted with phenol and 4-aminophenazone in the presence of peroxidase to produce a p-quinone imine dye, which was read spectrophotemetrically at 500 nm. Cholesterol concentration was then calculated against a standard curve. The entire assay was automated using a Biomek Automated Workstation.

tibia density = test: Bone density assay, OVX rat, thirty-five day dosing regimen (single photon absorptiometry of tibia); assay type: in vivo, female Sprague Dawley rats; conditions: OVX rats, oral, daily for 35 days, in 20% hydroxypropyl β-cyclodextrin
Protocol: Following the General Preparation procedure described above, the rats were treated daily for 35 days (6 rats per treatment group) and sacrificed by decapitation on the 36th day. The 35 day time period was sufficient to allow maximal effect on bone density, measured as described herein. At the time of sacrifice, the uteri were removed, dissected free of extraneous tissue, and the fluid contents were expelled before determination of wet weight in order to confirm estrogen deficiency associated with complete ovariectomy. […] The uteri were then placed in 10% neutral buffered formalin to allow for subsequent histological analysis.
The right tibias were excised and scanned at the distal metaphysis 1 mm from the patellar groove with single photon absorptiometry. Results of the densitometer measurements represent a calculation of bone density as a function of the bone mineral content and bone width.
In accordance with the procedures outlined above, compounds of the present invention and EE2 in 20% hydroxypropyl β-cyclodextrin were orally administered to test animals.

uterus = test: Uterine wet weight, post-menopausal (OVX) rat model, four day dosing regimen; assay type: in vivo, female Sprague Dawley rats; conditions: rat, in vivo, po, 0.1 mg/kg/day
Protocol: In the examples illustrating the methods, a post-menopausal model was used in which effects of different treatments upon various biological parameters were determined, including serum cholesterol concentration, uterine weight, eosinophil peroxidase activity, MCF-7 cell proliferation, and bone density.
as §1

[1] = tested on: eosinophil peroxidase activity; test: Uterine eosinophil peroxidase (EPO) assay, OVX rat, four day dosing regimen
Text: Seventy-five day old female Sprague Dawley rats (weight range of 200 to 225 g) were obtained from Charles River Laboratories (Portage, MI). The animals were either bilaterally ovariectomized (OVX) or exposed to a sham surgical procedure (Intact) at Charles River Laboratories, and then shipped after one week. Upon arrival, they were housed in metal hanging cages in groups of 3 or 4 per cage and had ad libitum access to food (calcium content approximately 0.5%) and water for one week. […] The photoperiod in the room was 12 hours light and 12 hours dark.
After a one week acclimation period (therefore, two weeks post-OVX), daily dosing with test compound was initiated. 17α-Ethynyl estradiol (EE2) (Sigma Chemical Co., St. Louis, MO), an orally available form of estrogen, or the test compound were given orally, unless otherwise stated, as a suspension in 1% carboxymethyl cellulose or dissolved in 20% cyclodextrin. Animals were dosed daily for 4 days. Following the dosing regimen, animals were weighed and anesthetized with a ketamine:xylazine (2:1, v:v) mixture. A blood sample was collected by cardiac puncture. The animals were then sacrificed by asphyxiation with CO2, the uterus was removed through a midline incision, and a wet uterine weight was determined.
Uteri were kept at 4° C until time of enzymatic analysis. The uteri were then homogenized in 50 volumes of 50 mM Tris buffer (pH - 8.0) containing 0.005% Triton X-100. Upon addition of 0.01% hydrogen peroxide and 10 mM o-phenylenediamine (final concentrations) in Tris buffer, increase in absorbance was monitored for one minute at 450 nm. […] The maximal velocity of a 15 second interval was determined over the initial, linear portion of the reaction curve.

C#C[C@]1(O)CC[C@H]2[C@@H]3CCc4cc(O)ccc4[C@H]3CC[C@@]21C [ethynyl estradiol, 17α-Ethynyl estradiol, reference compound]
inhibition in vivo at 0.1 mg/kg (serum cholesterol; Rattus norvegicus, 96 h, Dose 0.1 mg/kg, oral, daily for 4 days, OVX rats, * = significantly different than OVX control, read-out: Serum Cholesterol (% dec. OVX)): 89.6% | serum cholesterol (result in words) (serum cholesterol; compared to ovariectomized control animals, four day dosing, EE2 orally at 0.1 mg/Kg/day): caused a decrease in serum cholesterol | tibia density / bone loss (result in words) (tibia density): prevented this loss | uterine weight (result in words) (uterus): marked stimulatory action on the uterus | Uterine EPO (Vmax) ([1]; Dose 0.1 mg/kg, oral, daily for 4 days, OVX rats, * = significantly different than OVX control): 120.0* | eosinophil infiltration into the uterus (result in words) ([1]; ovariectomized rats, measured by assay of eosinophil peroxidase activity): substantial, expected increase in eosinophil infiltration
